Assay results from patent US6955891B2 (priority 2002, dated 2005).

Tests used:
[1] = biological target: Lethal factor (Bacillus anthracis, UniProt P15917); conditions: cited from earlier work
[2] = biological target: Bacillus anthracis lethal factor (Bacillus anthracis, UniProt P15917)
Sequence of Bacillus anthracis lethal factor (P15917 34-809 limits assumed): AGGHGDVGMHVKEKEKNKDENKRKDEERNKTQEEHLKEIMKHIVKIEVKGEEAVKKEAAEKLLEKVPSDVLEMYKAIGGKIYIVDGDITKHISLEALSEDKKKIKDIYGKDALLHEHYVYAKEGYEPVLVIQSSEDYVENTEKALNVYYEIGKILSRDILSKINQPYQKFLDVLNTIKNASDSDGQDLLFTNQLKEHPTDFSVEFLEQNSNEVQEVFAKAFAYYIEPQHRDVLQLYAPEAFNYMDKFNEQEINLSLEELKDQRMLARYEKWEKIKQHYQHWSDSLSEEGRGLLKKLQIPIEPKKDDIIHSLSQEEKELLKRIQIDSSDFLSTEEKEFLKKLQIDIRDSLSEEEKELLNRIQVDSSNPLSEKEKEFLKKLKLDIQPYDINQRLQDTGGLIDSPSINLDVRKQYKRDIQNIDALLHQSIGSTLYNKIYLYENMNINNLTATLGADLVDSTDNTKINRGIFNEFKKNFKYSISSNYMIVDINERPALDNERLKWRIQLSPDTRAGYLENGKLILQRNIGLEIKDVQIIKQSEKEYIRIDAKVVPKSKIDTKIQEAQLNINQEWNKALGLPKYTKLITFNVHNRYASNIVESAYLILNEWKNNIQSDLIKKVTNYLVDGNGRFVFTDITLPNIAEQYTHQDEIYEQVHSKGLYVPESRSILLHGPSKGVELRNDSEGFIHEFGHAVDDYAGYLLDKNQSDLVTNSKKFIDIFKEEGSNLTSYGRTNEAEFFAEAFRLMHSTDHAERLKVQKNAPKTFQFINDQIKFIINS

Sequence of Lethal factor (P15917 34-809 limits assumed): as above

Compound | effect on in vitro cleavage of synthetic peptides by lethal factor [1] | signal/background (S/B) at 100% cleavage [2]
c1cnc2c(c1)ccc1cccnc12 [1,10-phenanthroline] | inhibited | –
(Cou)NleKKKKVLP IQLNAATDK(Q-35)GG-NH2 [(Cou)Consensus(K(QSY-35)GG)-NH2] | – | largest S/B
